Reference: patent publication US10131648B2, “Substituted benzothiophenyl derivatives as GPR40 agonists for the treatment of type II diabetes” (Janssen Pharmaceutica NV, priority 2014, dated 2018)

These compounds were tested against human GPR40 (Homo sapiens (Human), UniProt O14842) (assay: GPR40 Calcium Flux Assay). Details: transfected HEK293 cells stably expressing human GPR40; Ca2+ mobilization; mean data; read-out: hGPR40 Ca^2+ Assay EC50.
Format: cell-based
Experimental: Compounds were tested in a calcium flux assay using transfected HEK293 cells stably expressing either human GPR40 or rat GPR40. Human GPR40 expressing cells were cultured in DMEM-High Glucose media supplemented with 10% fetal bovine serum, 1×L-Glutamine, 1×Penicillin/Streptomycin and 500 μg/mL G418. Rat GPR40 expressing cells were cultured in DMEM-High Glucose media supplemented with 10% fetal bovine serum and 1 μg/mL puromycin. Cells were plated into poly-D-lysine coated 384-well plates and cultured overnight in a 37° C. humidified tissue culture incubator under 5% CO2/[…] atmosphere. On the day of the experiment, the culture media was replaced with assay buffer (HBSS, 20 mM HEPES, 0.1% BSA) and the cells incubated at 37° C. for 1 h. Calcium-sensitive fluorescent dye (Fluo 8 No-Wash Calcium Dye, ABD Bioquest) was then added and the cells incubated for another 30 min at 37° C. followed by 15 min at room temperature while protected from the light. The cell plate and a plate of diluted compounds of Formula (I) were loaded into a fluorescent plate reader that added compounds onto the cells while measuring the fluorescence intensity of each well. The plate reader recorded fluorescence intensity at 1 second intervals for 8 min and provided the data for analysis in an Excel format. EC50 values were calculated using Prism (GraphPad) software.

human GPR40, sequence (O14842 whole entry): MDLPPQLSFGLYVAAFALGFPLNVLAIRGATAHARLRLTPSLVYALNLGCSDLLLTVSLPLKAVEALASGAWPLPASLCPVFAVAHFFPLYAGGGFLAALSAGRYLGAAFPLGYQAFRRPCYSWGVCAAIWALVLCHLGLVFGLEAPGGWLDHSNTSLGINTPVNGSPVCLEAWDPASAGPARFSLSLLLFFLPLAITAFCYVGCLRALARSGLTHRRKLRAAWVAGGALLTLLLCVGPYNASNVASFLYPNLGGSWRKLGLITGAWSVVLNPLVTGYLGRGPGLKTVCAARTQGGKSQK

Row | Structure (SMILES) | EC50 [nM]
1 | Cc1cc(OC2CCS(=O)(=O)CC2)ccc1-c1csc2ccc(COc3ccc(C4(CC(=O)O)CC(=O)C4)cc3)cc12 [Cpd 33, 2-(1-(4-((3-(4-((1,1-Dioxidotetrahydro-2H-thiopyran-4-yl)oxy)-2-methylphenyl)benzo[b]thiophen-5-yl)methoxy)phenyl)-3-oxocyclobutyl)acetic acid] | 15
2 | Cc1cc(OC2CCOCC2)ccc1-c1csc2ccc(COc3ccc(C4(CC(=O)O)CC(=O)C4)cc3)cc12 [Cpd 34, 2-(1-(4-((3-(2-Methyl-4-((tetrahydro-2H-pyran-4-yl)oxy)phenyl)benzo[b]thiophen-5-yl)methoxy)phenyl)-3-oxocyclobutyl)acetic acid] | 25
3 | CCOCCOc1ccc(-c2csc3ccc(COc4ccc([C@]5(CC(=O)O)C[C@@H](O)C5)cc4)cc23)c(C)c1 [Cpd 35] | 26
4 | Cc1cc(OC2CCS(=O)(=O)CC2)ccc1-c1csc2ccc(COc3ccc([C@]4(CC(=O)O)C[C@@H](O)C4)cc3)cc12 [Cpd 36, 2-((1r,3r)-1-(4-((3-(4-((1,1-Dioxidotetrahydro-2H-thiopyran-4-yl)oxy)-2-methylphenyl)benzo[b]thiophen-5-yl)methoxy)phenyl)-3-hydroxycyclobutyl)acetic acid] | 43
5 | Cc1cc(OC2CCOCC2)ccc1-c1csc2ccc(COc3ccc([C@]4(CC(=O)O)C[C@@H](O)C4)cc3)cc12 [Cpd 37, 2-((1r,3r)-3-Hydroxy-1-(4-((3-(2-methyl-4-((tetrahydro-2H-pyran-4-yl)oxy)phenyl)benzo[b]thiophen-5-yl)methoxy)phenyl)cyclobutyl)acetic acid] | 17
6 | Cc1ncccc1-c1csc2ccc(COc3ccc(C4(CC(=O)O)CC(=O)C4)cc3)cc12 [Cpd 38, 2-(1-(4-((3-(2-Methylpyridin-3-yl)benzo[b]thiophen-5-yl)methoxy)phenyl)-3-oxocyclobutyl)acetic acid] | 19
7 | Cc1ncccc1-c1csc2ccc(COc3ccc([C@]4(CC(=O)O)C[C@@H](O)C4)cc3)cc12 [Cpd 39] | 46
8 | Cc1cc(N2CC3(CCS3(=O)=O)C2)ccc1-c1csc2ccc(COc3ccc(C4(CC(=O)O)CC(=O)C4)cc3)cc12 [Cpd 40, 2-(1-(4-((3-(4-(1,1-Dioxido-1-thia-6-azaspiro[3.3]heptan-6-yl)-2-methylphenyl)benzo[b]thiophen-5-yl)methoxy)phenyl)-3-oxocyclobutyl)acetic acid] | 15
9 | CC#C[C@@H](CC(=O)O)c1ccc(OCc2ccc3scc(-c4cc(S(C)(=O)=O)ccc4C)c3c2)cc1 [Cpd 41, (3S)-3-(4-((3-(2-Methyl-5-(methylsulfonyl)phenyl)benzo[b]thiophen-5-yl)methoxy)phenyl)hex-4-ynoic acid] | 21
10 | CC#C[C@@H](CC(=O)O)c1ccc(OCc2ccc3scc(-c4ccc(S(C)(=O)=O)cc4C)c3c2)cc1 [Cpd 42, (3S)-3-(4-((3-(2-Methyl-4-(methylsulfonyl)phenyl)benzo[b]thiophen-5-yl)methoxy)phenyl)hex-4-ynoic acid] | 12
11 | CC#C[C@@H](CC(=O)O)c1ccc(OCc2ccc3scc(-c4cc(NS(C)(=O)=O)ccc4C)c3c2)cc1 [Cpd 43, (3S)-3-(4-((3-(2-Methyl-5-(methylsulfonamido)phenyl)benzo[b]thiophen-5-yl)methoxy)phenyl)hex-4-ynoic acid] | 31
12 | CC#C[C@@H](CC(=O)O)c1ccc(OCc2ccc3scc(-c4c(C)cccc4NS(C)(=O)=O)c3c2)cc1 [Cpd 44, (3S)-3-(4-((3-(2-Methyl-6-(methylsulfonamido)phenyl)benzo[b]thiophen-5-yl)methoxy)phenyl)hex-4-ynoic acid] | 22
13 | CC#CC(CC(=O)O)c1ccc(OCc2ccc3scc(-c4ccccc4C)c3c2)nc1 (stereo not shown) [Cpd 45, 3-(6-((3-(2-Methylphenyl)benzo[b]thiophen-5-yl)methoxy)pyridin-3-yl)hex-4-ynoic acid] | 13
14 | CC#CC(CC(=O)O)c1ccc(OCc2ccc3scc(-c4ccc(OC5CCOCC5)cc4C)c3c2)nc1 (stereo not shown) [Cpd 46, 3-(6-((3-(2-Methyl-4-((tetrahydro-2H-pyran-4-yl)oxy)phenyl)benzo[b]thiophen-5-yl)methoxy)pyridin-3-yl)hex-4-ynoic acid] | 18
15 | CC#CC(CC(=O)O)c1ccc(OCc2ccc3scc(-c4ccc(OCCOC)cc4C)c3c2)nc1 (stereo not shown) [Cpd 47, 3-(6-((3-(4-(2-Methoxyethoxy)-2-methylphenyl)benzo[b]thiophen-5-yl)methoxy)pyridin-3-yl)hex-4-ynoic acid] | 20
16 | CC#C[C@@H](CC(=O)O)c1ccc(OCc2ccc3scc(-c4ncc(OCCOC)cc4C)c3c2)cc1 [Cpd 48, (3S)-3-(4-((3-(5-(2-Methoxyethoxy)-3-methylpyridin-2-yl)benzo[b]thiophen-5-yl)methoxy)phenyl)hex-4-ynoic acid] | 10

Row | Structure (SMILES) | EC50 [nM]
17 | CC#C[C@@H](CC(=O)O)c1ccc(OCc2ccc3scc(-c4cc(OCCOC)cnc4C)c3c2)cc1 [Cpd 49, (3S)-3-(4-((3-(5-(2-Methoxyethoxy)-2-methylpyridin-3-yl)benzo[b]thiophen-5-yl)methoxy)phenyl)hex-4-ynoic acid] | 9
18 | CC#C[C@@H](CC(=O)O)c1ccc(OCc2ccc3scc(-c4ccc(OCCOC)nc4C)c3c2)cc1 [Cpd 50, (3S)-3-(4-((3-(6-(2-Methoxyethoxy)-2-methylpyridin-3-yl)benzo[b]thiophen-5-yl)methoxy)phenyl)hex-4-ynoic acid] | 12
19 | CC#C[C@@H](CC(=O)O)c1ccc(OCc2ccc3scc(-c4cnc(OCCOC)cc4C)c3c2)cc1 [Cpd 51, (3S)-3-(4-((3-(6-(2-Methoxyethoxy)-4-methylpyridin-3-yl)benzo[b]thiophen-5-yl)methoxy)phenyl)hex-4-ynoic acid] | 6
20 | CC#C[C@@H](CC(=O)O)c1ccc(OCc2ccc3scc(-c4cc(Cl)ncc4C)c3c2)cc1 [Cpd 52, (3S)-3-(4-((3-(2-Chloro-5-methylpyridin-4-yl)benzo[b]thiophen-5-yl)methoxy)phenyl)hex-4-ynoic acid] | 19
21 | Cc1ccccc1-c1csc2ccc(OCc3ccc(CCC(=O)O)cc3)cc12 [Cpd 53, 3-(4-(((3-(2-Methylphenyl)benzo[b]thiophen-5-yl)oxy)methyl)phenyl)propanoic acid] | 890
22 | CC#C[C@@H](CC(=O)O)c1ccc(COc2ccc3scc(-c4ccc(OCCC(C)(C)O)cc4C)c3c2)cc1 [Cpd 54, (3S)-3-[4-[([3-[4-(3-Hydroxy-3-methylbutoxy)-2-methylphenyl]-1-benzothiophen-5-yl]oxy)methyl]phenyl]hex-4-ynoic acid] | 44
23 | CC#C[C@@H](CC(=O)O)c1ccc(COc2ccc3scc(-c4ccc(OCC(O)CO)cc4C)c3c2)cc1 (stereo partly drawn) [Cpd 55, (3S)-3-[4-[([3-[4-(2,3-Dihydroxypropoxy)-2-methylphenyl]-1-benzothiophen-5-yl]oxy)methyl]phenyl]hex-4-ynoic acid] | 33
24 | CC#C[C@@H](CC(=O)O)c1ccc(COc2ccc3scc(-c4ccc(OCC5(C)COC5)cc4C)c3c2)cc1 [Cpd 56, (3S)-3-(4-[[(3-[2-Methyl-4-[(3-methyloxetan-3-yl)methoxy]phenyl]-1-benzothiophen-5-yl)oxy]methyl]phenyl)hex-4-ynoic acid] | 34
25 | CC#C[C@@H](CC(=O)O)c1ccc(COc2ccc3scc(-c4ccc(OC5CCOCC5)cc4C)c3c2)cc1 [Cpd 57, (3S)-3-[4-[([3-[2-Methyl-4-(oxan-4-yloxy)phenyl]-1-benzothiophen-5-yl]oxy)methyl]phenyl]hex-4-ynoic acid] | 17
26 | CC#C[C@@H](CC(=O)O)c1ccc(COc2ccc3scc(-c4ccc(OCCOC)cc4C)c3c2)cc1 [Cpd 58, (3S)-3-[4-[([3-[4-(2-Methoxyethoxy)-2-methylphenyl]-1-benzothiophen-5-yl]oxy)methyl]phenyl]hex-4-ynoic acid] | 14
27 | CC#C[C@@H](CC(=O)O)c1ccc(COc2ccc3scc(-c4ccc(OCC5CCS(=O)(=O)CC5)cc4C)c3c2)cc1 [Cpd 59, (3S)-3-{4-[((3-{4-[(1,1-Dioxo-tetrahydro-2H-thiopyran-4-yl)methoxy]-2-methylphenyl}-1-benzothiophen-5-yl)oxy)methyl]phenyl}hex-4-ynoic acid] | 14
28 | CC#C[C@@H](CC(=O)O)c1ccc(COc2ccc3scc(-c4ccc(OCC5(C)CS(=O)(=O)C5)cc4C)c3c2)cc1 [Cpd 60, (3S)-3-(4-(((3-(2-Methyl-4-((3-methyl-1,1-dioxidothietan-3-yl)methoxy)phenyl)benzo[b]thiophen-5-yl)oxy)methyl)phenyl)hex-4-ynoic acid] | 70
29 | CC#CC(CC(=O)O)c1ccc(OCc2ccc3scc(-c4ccc(OCCC(C)(C)O)cc4C)c3c2)nc1 (stereo not shown) [Cpd 61] | 16
30 | CC#CC(CC(=O)O)c1ccc(OCc2ccc3scc(-c4ccc(OCC(O)CO)cc4C)c3c2)nc1 (stereo not shown) [Cpd 62, 3-(6-((3-(4-(2,3-Dihydroxypropoxy)-2-methylphenyl)benzo[b]thiophen-5-yl)methoxy)pyridin-3-yl)hex-4-ynoic acid] | 10
31 | CC#CC(CC(=O)O)c1ccc(OCc2ccc3scc(-c4ccc(OCC5CCS(=O)(=O)CC5)cc4C)c3c2)nc1 (stereo not shown) [Cpd 63, 3-(6-((3-(4-((1,1-Dioxidotetrahydro-2H-thiopyran-4-yl)methoxy)-2-methylphenyl)benzo[b]thiophen-5-yl)methoxy)pyridin-3-yl)hex-4-ynoic acid] | 10
